Measured values from the kinase profiling compilation of Christmann-Franck et al. (2016).
Blank lines part the entries; values can stand above or below the compound they belong to.

Key:
Assay in all cases: radiometric filter-binding kinase assay
[1] = target: CLK2 (human) (UniProt P49760)
[2] = target: RPS6KA5 KD1 KD2 (human) (UniProt O75582)
[3] = target: PAK6 (human) (UniProt Q9NQU5)
[4] = target: BRSK2 (human) (UniProt Q8IWQ3)
[5] = test system: ROCK2 (rat); conditions: accession and sequence are those of the human protein
[6] = target: HIPK2 (human) (UniProt Q9H2X6)
[7] = target: MAP3K5 (human) (UniProt Q99683)
[8] = test system: LCK (mouse); conditions: accession and sequence are those of the human protein
[9] = target: CSK (human) (UniProt P41240)
[10] = target: MAP3K9 (human) (UniProt P80192)
[11] = target: CAMKK2 (human) (UniProt Q96RR4)
[12] = target: MAPK11 (human) (UniProt Q15759)
[13] = target: IGF1R (human) (UniProt P08069)
[14] = target: SRC (human) (UniProt P12931)
[15] = target: MAPK13 (human) (UniProt O15264)
[16] = target: EPHB3 (human) (UniProt P54753)
[17] = target: PLK1 (human) (UniProt P53350)
[18] = target: HIPK3 (human) (UniProt Q9H422)
[19] = target: EPHB4 (human) (UniProt P54760)
[20] = test system: PRKAA1 or PRKAA2 (rat); conditions: accession and sequence are those of the human protein
[21] = target: MAPK1 (human) (UniProt P28482)
[22] = target: YES1 (human) (UniProt P07947)
[23] = target: DAPK1 (human) (UniProt P53355)
[24] = target: HIPK1 (human) (UniProt Q86Z02)
[25] = target: EPHA4 (human) (UniProt P54764)
[26] = target: MAP3K7 TAB1 (human) (UniProt Q15750+O43318)
[27] = target: PAK7 (human) (UniProt Q9P286)
[28] = target: SYK (human) (UniProt P43405)
[29] = target: EPHB1 (human) (UniProt P54762)
[30] = target: PKN2 (human) (UniProt Q16513)
[31] = target: INSR (human) (UniProt P06213)
[32] = target: PRKCZ (human) (UniProt Q05513)
[33] = test system: AKT2 (human), P31751 [S474D]
[34] = target: GSK3B (human) (UniProt P49841)
[35] = target: MAP3K1 (human) (UniProt Q13233)
[36] = target: MARK4 (human) (UniProt Q96L34)
Chain of MARK4 (human) (Q96L34 whole entry, looked up): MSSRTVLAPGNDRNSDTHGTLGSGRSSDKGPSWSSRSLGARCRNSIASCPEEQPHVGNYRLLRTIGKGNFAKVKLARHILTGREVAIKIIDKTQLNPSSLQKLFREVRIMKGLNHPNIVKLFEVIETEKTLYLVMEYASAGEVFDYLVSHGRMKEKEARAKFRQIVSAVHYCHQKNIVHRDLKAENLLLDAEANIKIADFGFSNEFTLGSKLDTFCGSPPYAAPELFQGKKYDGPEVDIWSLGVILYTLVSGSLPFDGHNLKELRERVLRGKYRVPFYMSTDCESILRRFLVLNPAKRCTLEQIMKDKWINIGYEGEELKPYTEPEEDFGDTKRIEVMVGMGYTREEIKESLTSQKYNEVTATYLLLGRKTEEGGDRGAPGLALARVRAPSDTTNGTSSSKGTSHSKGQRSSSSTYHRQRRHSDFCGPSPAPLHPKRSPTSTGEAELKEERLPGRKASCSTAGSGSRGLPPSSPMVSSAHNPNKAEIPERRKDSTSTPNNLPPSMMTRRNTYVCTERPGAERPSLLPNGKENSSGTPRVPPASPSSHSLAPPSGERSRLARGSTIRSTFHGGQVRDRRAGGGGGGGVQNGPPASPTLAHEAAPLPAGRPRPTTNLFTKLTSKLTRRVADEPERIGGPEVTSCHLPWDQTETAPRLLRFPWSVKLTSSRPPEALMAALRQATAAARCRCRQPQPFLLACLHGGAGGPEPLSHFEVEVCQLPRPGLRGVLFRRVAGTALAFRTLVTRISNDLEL

Chain of PAK7 (human) (Q9P286 whole entry, looked up): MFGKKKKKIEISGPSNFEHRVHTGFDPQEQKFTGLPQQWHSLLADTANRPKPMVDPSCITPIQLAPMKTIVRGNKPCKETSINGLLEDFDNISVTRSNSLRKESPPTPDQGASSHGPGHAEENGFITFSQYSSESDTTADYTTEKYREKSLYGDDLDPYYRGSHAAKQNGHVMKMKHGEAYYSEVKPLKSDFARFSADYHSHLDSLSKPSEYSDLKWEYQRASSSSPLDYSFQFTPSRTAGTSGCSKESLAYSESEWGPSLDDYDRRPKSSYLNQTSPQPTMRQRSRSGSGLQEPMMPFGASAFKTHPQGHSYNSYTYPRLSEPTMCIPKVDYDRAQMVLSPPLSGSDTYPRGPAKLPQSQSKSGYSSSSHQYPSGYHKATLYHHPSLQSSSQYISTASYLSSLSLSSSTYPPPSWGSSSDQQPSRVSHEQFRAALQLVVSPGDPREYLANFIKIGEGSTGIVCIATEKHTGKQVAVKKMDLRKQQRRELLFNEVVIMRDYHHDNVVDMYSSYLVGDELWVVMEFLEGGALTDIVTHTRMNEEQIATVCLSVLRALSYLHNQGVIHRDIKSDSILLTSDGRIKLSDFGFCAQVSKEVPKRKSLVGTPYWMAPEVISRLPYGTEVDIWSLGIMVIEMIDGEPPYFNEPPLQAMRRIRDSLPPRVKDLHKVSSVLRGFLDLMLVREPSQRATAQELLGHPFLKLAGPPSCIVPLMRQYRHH
Chain of MAP3K5 (human) (Q99683 whole entry, looked up): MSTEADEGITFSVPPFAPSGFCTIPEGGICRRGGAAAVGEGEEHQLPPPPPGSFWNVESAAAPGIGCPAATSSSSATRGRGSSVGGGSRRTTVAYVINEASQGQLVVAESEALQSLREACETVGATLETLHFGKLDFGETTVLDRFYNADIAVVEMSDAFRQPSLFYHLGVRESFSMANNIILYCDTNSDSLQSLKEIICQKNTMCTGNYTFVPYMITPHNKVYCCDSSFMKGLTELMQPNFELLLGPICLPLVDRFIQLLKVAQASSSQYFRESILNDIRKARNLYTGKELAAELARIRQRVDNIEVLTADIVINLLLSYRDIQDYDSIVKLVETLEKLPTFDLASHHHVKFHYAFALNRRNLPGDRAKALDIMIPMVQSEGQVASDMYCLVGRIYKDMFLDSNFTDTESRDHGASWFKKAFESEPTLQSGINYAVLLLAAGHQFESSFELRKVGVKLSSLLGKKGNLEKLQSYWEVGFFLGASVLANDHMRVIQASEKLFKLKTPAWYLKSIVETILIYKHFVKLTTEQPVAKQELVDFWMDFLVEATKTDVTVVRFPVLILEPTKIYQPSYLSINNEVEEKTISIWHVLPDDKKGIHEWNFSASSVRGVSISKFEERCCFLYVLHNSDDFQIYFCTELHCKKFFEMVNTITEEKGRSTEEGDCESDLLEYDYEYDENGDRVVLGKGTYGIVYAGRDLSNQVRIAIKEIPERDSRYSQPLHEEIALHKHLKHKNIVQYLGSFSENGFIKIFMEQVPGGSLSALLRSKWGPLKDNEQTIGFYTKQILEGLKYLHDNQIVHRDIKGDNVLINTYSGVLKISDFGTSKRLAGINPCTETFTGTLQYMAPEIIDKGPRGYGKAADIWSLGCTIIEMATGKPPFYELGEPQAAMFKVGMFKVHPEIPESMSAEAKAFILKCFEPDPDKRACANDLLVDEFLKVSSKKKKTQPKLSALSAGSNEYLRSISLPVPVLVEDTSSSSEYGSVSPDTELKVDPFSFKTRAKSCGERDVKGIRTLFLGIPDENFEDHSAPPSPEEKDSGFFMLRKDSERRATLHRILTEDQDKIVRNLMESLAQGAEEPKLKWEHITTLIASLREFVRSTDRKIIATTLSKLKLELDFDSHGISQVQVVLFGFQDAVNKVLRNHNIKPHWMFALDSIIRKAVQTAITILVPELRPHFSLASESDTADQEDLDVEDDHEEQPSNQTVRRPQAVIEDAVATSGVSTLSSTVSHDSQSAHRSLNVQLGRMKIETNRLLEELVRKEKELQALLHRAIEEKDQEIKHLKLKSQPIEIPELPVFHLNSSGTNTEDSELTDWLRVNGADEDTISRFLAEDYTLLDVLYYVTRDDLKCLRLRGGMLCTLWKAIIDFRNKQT
Chain of HIPK1 (human) (Q86Z02 whole entry, looked up): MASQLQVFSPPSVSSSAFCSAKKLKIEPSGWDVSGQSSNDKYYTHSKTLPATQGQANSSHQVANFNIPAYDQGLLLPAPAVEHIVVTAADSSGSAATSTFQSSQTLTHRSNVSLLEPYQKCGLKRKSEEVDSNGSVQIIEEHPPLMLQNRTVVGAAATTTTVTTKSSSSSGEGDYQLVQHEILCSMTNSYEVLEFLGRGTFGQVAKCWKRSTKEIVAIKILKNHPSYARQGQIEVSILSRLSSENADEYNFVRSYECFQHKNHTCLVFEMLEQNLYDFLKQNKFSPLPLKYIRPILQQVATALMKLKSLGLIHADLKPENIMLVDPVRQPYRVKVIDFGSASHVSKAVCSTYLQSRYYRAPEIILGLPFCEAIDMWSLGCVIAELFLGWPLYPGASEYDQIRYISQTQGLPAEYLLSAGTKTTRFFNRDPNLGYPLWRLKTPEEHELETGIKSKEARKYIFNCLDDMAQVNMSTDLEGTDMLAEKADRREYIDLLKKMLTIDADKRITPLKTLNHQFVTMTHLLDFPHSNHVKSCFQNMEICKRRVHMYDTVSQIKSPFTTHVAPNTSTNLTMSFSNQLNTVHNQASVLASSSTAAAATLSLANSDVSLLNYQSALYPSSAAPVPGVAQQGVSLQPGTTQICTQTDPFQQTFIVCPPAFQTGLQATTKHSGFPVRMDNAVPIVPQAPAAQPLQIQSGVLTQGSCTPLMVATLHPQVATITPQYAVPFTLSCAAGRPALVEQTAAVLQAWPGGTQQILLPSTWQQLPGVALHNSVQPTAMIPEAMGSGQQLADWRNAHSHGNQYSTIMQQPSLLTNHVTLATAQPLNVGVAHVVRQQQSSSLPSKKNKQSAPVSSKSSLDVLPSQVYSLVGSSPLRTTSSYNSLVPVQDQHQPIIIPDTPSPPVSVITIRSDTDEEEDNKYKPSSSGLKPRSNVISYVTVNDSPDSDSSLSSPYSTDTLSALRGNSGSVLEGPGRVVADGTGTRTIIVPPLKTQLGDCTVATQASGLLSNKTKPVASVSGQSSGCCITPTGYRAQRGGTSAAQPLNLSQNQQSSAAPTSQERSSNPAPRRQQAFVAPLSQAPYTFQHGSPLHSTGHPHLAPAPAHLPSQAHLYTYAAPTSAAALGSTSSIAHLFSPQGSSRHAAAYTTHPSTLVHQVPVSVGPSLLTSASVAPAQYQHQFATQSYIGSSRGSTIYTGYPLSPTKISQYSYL
Chain of MAPK11 (human) (Q15759 whole entry, looked up): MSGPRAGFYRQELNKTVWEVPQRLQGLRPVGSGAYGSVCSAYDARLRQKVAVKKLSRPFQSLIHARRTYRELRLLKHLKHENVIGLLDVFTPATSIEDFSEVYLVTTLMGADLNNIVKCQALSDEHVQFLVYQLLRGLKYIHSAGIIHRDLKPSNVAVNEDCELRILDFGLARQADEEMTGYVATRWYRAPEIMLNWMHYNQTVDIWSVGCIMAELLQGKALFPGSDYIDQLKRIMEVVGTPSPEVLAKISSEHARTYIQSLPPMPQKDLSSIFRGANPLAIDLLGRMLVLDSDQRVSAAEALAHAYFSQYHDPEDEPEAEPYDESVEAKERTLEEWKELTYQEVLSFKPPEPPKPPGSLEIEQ
Chain of CAMKK2 (human) (Q96RR4 whole entry, looked up): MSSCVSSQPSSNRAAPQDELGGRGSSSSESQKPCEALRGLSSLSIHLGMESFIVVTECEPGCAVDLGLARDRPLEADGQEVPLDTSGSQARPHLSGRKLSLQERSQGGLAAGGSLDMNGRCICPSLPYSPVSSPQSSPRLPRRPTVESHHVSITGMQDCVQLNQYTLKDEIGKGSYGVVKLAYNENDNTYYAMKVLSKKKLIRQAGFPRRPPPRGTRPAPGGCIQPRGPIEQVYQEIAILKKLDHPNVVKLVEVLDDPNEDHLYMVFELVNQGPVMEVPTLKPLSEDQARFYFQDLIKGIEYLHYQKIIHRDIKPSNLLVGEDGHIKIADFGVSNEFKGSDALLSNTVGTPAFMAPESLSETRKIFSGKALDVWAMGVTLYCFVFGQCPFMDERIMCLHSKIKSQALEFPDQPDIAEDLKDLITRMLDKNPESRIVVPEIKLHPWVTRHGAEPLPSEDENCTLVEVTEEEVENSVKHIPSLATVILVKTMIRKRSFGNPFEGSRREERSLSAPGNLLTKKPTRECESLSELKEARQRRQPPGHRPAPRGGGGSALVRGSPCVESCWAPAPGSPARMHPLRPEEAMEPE

residual activity ([1]; compound 0.1 µM): 30% | residual activity ([1]; compound 1.0 µM): 11% | residual activity ([2]; compound 0.1 µM): 76% | residual activity ([2]; compound 1.0 µM): 34% | residual activity ([3]; compound 0.1 µM): 62% | residual activity ([3]; compound 1.0 µM): 24% | residual activity ([4]; compound 0.1 µM): 84% | residual activity ([4]; compound 1.0 µM): 35% | residual activity ([5]; compound 0.1 µM): 49% | residual activity ([5]; compound 1.0 µM): 25% | residual activity ([6]; compound 0.1 µM): 31% | residual activity ([6]; compound 1.0 µM): 10% | residual activity ([7]; compound 0.1 µM): 99% | residual activity ([7]; compound 1.0 µM): 77% | residual activity ([8]; compound 0.1 µM): 10% | residual activity ([8]; compound 1.0 µM): 4% | residual activity ([9]; compound 0.1 µM): 65% | residual activity ([9]; compound 1.0 µM): 38% | residual activity ([10]; compound 0.1 µM): 7% | residual activity ([10]; compound 1.0 µM): 6% | residual activity ([11]; compound 0.1 µM): 58% | residual activity ([11]; compound 1.0 µM): 28% | residual activity ([12]; compound 0.1 µM): 103% | residual activity ([12]; compound 1.0 µM): 95% | residual activity ([13]; compound 0.1 µM): 104% | residual activity ([13]; compound 1.0 µM): 6% | residual activity ([14]; compound 0.1 µM): 7% | residual activity ([14]; compound 1.0 µM): 3% | residual activity ([15]; compound 1.0 µM): 68% | residual activity ([16]; compound 0.1 µM): 86% | residual activity ([16]; compound 1.0 µM): 16% | residual activity ([17]; compound 0.1 µM): 90% | residual activity ([17]; compound 1.0 µM): 91% | residual activity ([18]; compound 0.1 µM): 69% | residual activity ([18]; compound 1.0 µM): 19% | residual activity ([19]; compound 0.1 µM): 69% | residual activity ([19]; compound 1.0 µM): 3% | residual activity ([20]; compound 0.1 µM): 25% | residual activity ([20]; compound 1.0 µM): 22% | residual activity ([21]; compound 0.1 µM): 84% | residual activity ([21]; compound 1.0 µM): 57% | residual activity ([22]; compound 0.1 µM): 16% | residual activity ([22]; compound 1.0 µM): 7% | residual activity ([23]; compound 0.1 µM): 51% | residual activity ([23]; compound 1.0 µM): 15% | residual activity ([24]; compound 0.1 µM): 44% | residual activity ([24]; compound 1.0 µM): 17% | residual activity ([25]; compound 0.1 µM): 14% | residual activity ([25]; compound 1.0 µM): 5% | residual activity ([26]; compound 0.1 µM): 14% | residual activity ([26]; compound 1.0 µM): 19% | residual activity ([27]; compound 0.1 µM): 53% | residual activity ([27]; compound 1.0 µM): 18% | residual activity ([28]; compound 0.1 µM): 58% | residual activity ([28]; compound 1.0 µM): 13% | residual activity ([29]; compound 0.1 µM): 8% | residual activity ([29]; compound 1.0 µM): 3% | residual activity ([30]; compound 0.1 µM): 57% | residual activity ([30]; compound 1.0 µM): 27% | residual activity ([31]; compound 0.1 µM): 79% | residual activity ([31]; compound 1.0 µM): 21% | residual activity ([32]; compound 1.0 µM): 78% | residual activity ([33]; compound 0.1 µM): 88% | residual activity ([33]; compound 1.0 µM): 77% | residual activity ([34]; compound 0.1 µM): 37% | residual activity ([34]; compound 1.0 µM): 6% | residual activity ([35]; compound 0.1 µM): 103% | residual activity ([35]; compound 1.0 µM): 92% | residual activity ([36]; compound 1.0 µM): 24%
Compound: COc1ccc(-n2ncc3cnc(Nc4cc(OC)c(OC)c(OCCCN5CCN(C)CC5)c4)nc32)cc1

residual activity ([1]; compound 0.01 µM): 94% | residual activity ([1]; compound 0.1 µM): 100% | residual activity ([2]; compound 0.01 µM): 108% | residual activity ([2]; compound 0.1 µM): 104% | residual activity ([2]; compound 1.0 µM): 104% | residual activity ([3]; compound 0.01 µM): 92% | residual activity ([3]; compound 0.1 µM): 95% | residual activity ([3]; compound 1.0 µM): 95% | residual activity ([4]; compound 0.01 µM): 114% | residual activity ([4]; compound 0.1 µM): 93% | residual activity ([4]; compound 1.0 µM): 96% | residual activity ([5]; compound 0.01 µM): 91% | residual activity ([5]; compound 0.1 µM): 94% | residual activity ([5]; compound 1.0 µM): 99% | residual activity ([6]; compound 0.01 µM): 96% | residual activity ([6]; compound 0.1 µM): 86% | residual activity ([6]; compound 1.0 µM): 72% | residual activity ([7]; compound 0.01 µM): 105% | residual activity ([7]; compound 0.1 µM): 103% | residual activity ([7]; compound 1.0 µM): 109% | residual activity ([8]; compound 0.01 µM): 79% | residual activity ([8]; compound 0.1 µM): 93% | residual activity ([8]; compound 1.0 µM): 69% | residual activity ([9]; compound 0.1 µM): 105% | residual activity ([10]; compound 0.01 µM): 112% | residual activity ([10]; compound 0.1 µM): 117% | residual activity ([10]; compound 1.0 µM): 101% | residual activity ([11]; compound 0.01 µM): 102% | residual activity ([11]; compound 0.1 µM): 99% | residual activity ([12]; compound 0.01 µM): 88% | residual activity ([12]; compound 0.1 µM): 93% | residual activity ([12]; compound 1.0 µM): 98% | residual activity ([13]; compound 0.01 µM): 103% | residual activity ([13]; compound 0.1 µM): 100% | residual activity ([14]; compound 0.01 µM): 96% | residual activity ([14]; compound 0.1 µM): 91% | residual activity ([14]; compound 1.0 µM): 86% | residual activity ([15]; compound 0.01 µM): 101% | residual activity ([15]; compound 0.1 µM): 100% | residual activity ([15]; compound 1.0 µM): 108% | residual activity ([16]; compound 0.01 µM): 118% | residual activity ([16]; compound 0.1 µM): 130% | residual activity ([16]; compound 1.0 µM): 92% | residual activity ([17]; compound 0.01 µM): 102% | residual activity ([17]; compound 0.1 µM): 107% | residual activity ([17]; compound 1.0 µM): 114% | residual activity ([18]; compound 0.01 µM): 104% | residual activity ([18]; compound 0.1 µM): 100% | residual activity ([18]; compound 1.0 µM): 102% | residual activity ([19]; compound 0.01 µM): 109% | residual activity ([19]; compound 0.1 µM): 116% | residual activity ([20]; compound 0.01 µM): 105% | residual activity ([20]; compound 0.1 µM): 105% | residual activity ([20]; compound 1.0 µM): 94% | residual activity ([21]; compound 0.01 µM): 96% | residual activity ([21]; compound 0.1 µM): 87% | residual activity ([21]; compound 1.0 µM): 36% | residual activity ([22]; compound 0.01 µM): 87% | residual activity ([22]; compound 0.1 µM): 85% | residual activity ([23]; compound 0.01 µM): 82% | residual activity ([23]; compound 0.1 µM): 108% | residual activity ([23]; compound 1.0 µM): 96% | residual activity ([24]; compound 0.01 µM): 111% | residual activity ([24]; compound 0.1 µM): 99% | residual activity ([24]; compound 1.0 µM): 95% | residual activity ([25]; compound 0.01 µM): 109% | residual activity ([25]; compound 0.1 µM): 122% | residual activity ([25]; compound 1.0 µM): 107% | residual activity ([26]; compound 0.01 µM): 101% | residual activity ([26]; compound 0.1 µM): 48% | residual activity ([26]; compound 1.0 µM): 2% | residual activity ([27]; compound 0.01 µM): 102% | residual activity ([27]; compound 0.1 µM): 115% | residual activity ([28]; compound 0.1 µM): 108% | residual activity ([28]; compound 1.0 µM): 85% | residual activity ([29]; compound 0.01 µM): 97% | residual activity ([29]; compound 0.1 µM): 110% | residual activity ([29]; compound 1.0 µM): 84% | residual activity ([30]; compound 0.01 µM): 93% | residual activity ([31]; compound 0.01 µM): 112% | residual activity ([31]; compound 0.1 µM): 116% | residual activity ([31]; compound 1.0 µM): 97% | residual activity ([32]; compound 0.01 µM): 97% | residual activity ([32]; compound 0.1 µM): 78% | residual activity ([32]; compound 1.0 µM): 105% | residual activity ([33]; compound 0.01 µM): 105% | residual activity ([33]; compound 0.1 µM): 103% | residual activity ([34]; compound 0.01 µM): 91% | residual activity ([34]; compound 0.1 µM): 106% | residual activity ([35]; compound 0.01 µM): 112% | residual activity ([35]; compound 0.1 µM): 101% | residual activity ([35]; compound 1.0 µM): 102% | residual activity ([36]; compound 0.01 µM): 103% | residual activity ([36]; compound 0.1 µM): 99%
Compound: COc1cc(O)c2c(c1)[C@H]1OC1C[C@H](O)[C@H](O)C(=O)/C=C\C[C@H](C)OC2=O (stereo partly drawn)
